# From patent US10125112B2, “Modulators of the relaxin receptor 1” (The United States of America, as Represented by the …, priority 2012, dated 2018)
# Where two headings read alike, the source gives them in different places.
# Columns and labels:
# [1] = test system: VEGF gene expression in THP1 cells; experiment: VEGF gene expression in THP1 cells (qRT-PCR); format: cell-based, human; settings: 2 hours treatment, normalized to GAPDH
# Excerpt: This example illustrates the activation of VEGF expression in THP1 cells by several embodiments of the disclosure.
# THP1 cells (human acute monocytic leukemia cell line) were used to analyze the stimulation of VEGF gene expression after treatment with relaxin or compounds. The VEGF stimulation in these cultured endometrial cells is a well-established property of relaxin.^19 This effect is most probably responsible for the observed angiogenic and neovascularization properties of relaxin in various settings.^20 400,000 THP1 cells (0.4 mL at 1×10^6 cells/mL) in test media (RPMI-1640 without phenol red, 0.5% FBS, Ix Pen/Strep, 0.05 mM of 2-mercaptoethanol) were seeded in each well on a 24-well plate. After 24 hours incubation at 37° C., 5% CO2, relaxin or compounds were added for 2 hours. […] Quantitative real time RT-PCR for VEGF and GAPDH gene expression was done using a Roche LightCycler 480 (Roche Diagnostics, Indianapolis, Ind.) with the appropriate set of primers and probes spanning different exons. The relative fold change in VEGF mRNA level was calculated by the comparative Ct (2-ΔΔ^Ct) method using GAPDH expression for normalization of RNA. […]
# cAMP in THP-1 cells = experiment: cyclic AMP assay in THP-1 cells; format: cell-based; settings: Homo sapiens
# Description: This Example illustrates the cyclic AMP assay in THP-1 cells. THP-1 cells were propagated in RPMI-1640 supplemented with 20% FBS, 0.05 mM β-mercaptoethanol, 100 U/mL penicillin and 100 μg/mL streptomycin at 37° C. in 5% CO2. Before assaying for cAMP response, cells were serum starved in RPMI-1640 supplemented with 0.05 mM (3-mercaptoethanol, 100 U/mL penicillin and 100 μg/mL streptomycin at 37° C. in 5% CO2 for 16 hrs. For 384-well format assays, cells were seeded as 30,000 cells/well in 30 μL/well media with a MultiDrop Combi dispenser (Thermo Scientific, Waltham, Mass.). Subsequently, 2 μL/well of 1.6 mM Ro 20-1724 and 160 uM forskolin in PBS+ (DPBS, 1 mM CaCl2, 0.5 mM MgCl2, 0.05% BSA, 0.005% Tween 20) was dispensed using a BioRAPTR FRD dispenser (Beckman Coulter, Brea, Calif.). Immediately after, 0.25 μL/well of compound solutions in DMSO was dispensed with CyBi-well dispenser (CyBio, Jena, Germany). The cells were allowed to be stimulated with compounds for 30 min at 37° C. in 5% CO2, after which, 8 μL/well of each HTRF cAMP HiRange kit (CisBio, Bedford, Mass.) detection reagent was dispensed with a BioRAPTR FRD dispenser. The detection reagents were diluted as such: K-α-cAMP antibody at 1:20 and cAMP-d2 at 1:18 in HTRF lysis buffer (supplied by the assay kit). The plates were incubated for 30 min at room temperature before the signal was read on an Envision plate reader (PerkinElmer, Waltham, Mass.).
# RXFP1 = target: T1, RXFP1 (Homo sapiens, UniProt Q9HBX9); experiment: RXFP1 cAMP assay in HEK293-RXFP1 cells (HTRF); format: cell-based
# T1 construct: expressed in transfected cells
# T1 sequence (Q9HBX9 1-757): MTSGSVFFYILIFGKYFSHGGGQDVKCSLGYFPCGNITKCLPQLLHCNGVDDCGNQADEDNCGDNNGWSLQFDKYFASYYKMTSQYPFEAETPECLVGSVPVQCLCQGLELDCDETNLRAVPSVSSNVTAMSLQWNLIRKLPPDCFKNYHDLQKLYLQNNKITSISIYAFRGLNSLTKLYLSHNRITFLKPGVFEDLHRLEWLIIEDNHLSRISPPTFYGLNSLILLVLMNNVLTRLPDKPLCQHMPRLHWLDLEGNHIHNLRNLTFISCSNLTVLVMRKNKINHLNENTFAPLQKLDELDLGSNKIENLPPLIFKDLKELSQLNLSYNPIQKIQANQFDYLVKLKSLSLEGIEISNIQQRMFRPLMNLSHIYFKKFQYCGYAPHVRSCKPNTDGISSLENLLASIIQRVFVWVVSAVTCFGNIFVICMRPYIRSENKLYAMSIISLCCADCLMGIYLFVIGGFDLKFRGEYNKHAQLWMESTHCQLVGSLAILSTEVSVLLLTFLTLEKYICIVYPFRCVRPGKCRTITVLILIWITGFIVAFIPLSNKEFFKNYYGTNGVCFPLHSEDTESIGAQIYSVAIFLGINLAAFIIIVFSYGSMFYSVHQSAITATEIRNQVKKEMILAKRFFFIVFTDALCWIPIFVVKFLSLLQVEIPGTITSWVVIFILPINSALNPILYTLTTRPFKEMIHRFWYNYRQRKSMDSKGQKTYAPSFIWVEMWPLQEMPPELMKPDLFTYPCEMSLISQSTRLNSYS
# Description: The RXFP1 receptor couples to the Gs protein, and activation of the receptor results in stimulation of cAMP production. […] The TR-FRET between the K-α-cAMP and cAMP-d2 is disrupted by cAMP in the cell lysates, thus allowing TR-FRET detection in a homogenous format that is suitable for HTS. […] The primary screen was carried out in 1536-well format, however, because of a more robust signal to background ratio, all subsequent follow-up experiments were carried out in 384-well format.
# For the primary screen, HEK293-RXFP1 cells were seeded at 2,000 cells/well in 3 μL/well media with a MultiDrop Combi dispenser (Thermo Scientific, Logan, Utah), and allowed to attach overnight at 37° C., 5% CO2. […] The cells were allowed to be stimulated with the compounds for 30 minutes at 37° C., 5% CO2, after which, 1 μL/well of each HTRF detection reagent was dispensed with a BioRAPTR FRD dispenser. The detection reagents were diluted before addition as follows: K-α-cAMP antibody at 1:20 and cAMP-d2 at 1:18 in HTRF lysis buffer (supplied by the assay kit). The plates were incubated for 30 minute at room temperature, and then the signal was read on a ViewLux plate reader (PerkinElmer, Waltham, Mass.).
# The assay was run according to the following protocol:
# Max Response indicates what the maximal amount of functional activity induced by the compound is, as a percentage of the maximal receptor activation induced by high concentrations of forskolin.
# PBS solubility = format: physicochemical; settings: aqueous buffer
# RXFP2 = target: T2, RXFP2 (Homo sapiens, UniProt Q8WXD0); experiment: RXFP2 cAMP assay in HEK293-RXFP2 cells; format: cell-based
# T2 construct: expressed in transfected cells
# T2 sequence (Q8WXD0 whole entry, species assumed): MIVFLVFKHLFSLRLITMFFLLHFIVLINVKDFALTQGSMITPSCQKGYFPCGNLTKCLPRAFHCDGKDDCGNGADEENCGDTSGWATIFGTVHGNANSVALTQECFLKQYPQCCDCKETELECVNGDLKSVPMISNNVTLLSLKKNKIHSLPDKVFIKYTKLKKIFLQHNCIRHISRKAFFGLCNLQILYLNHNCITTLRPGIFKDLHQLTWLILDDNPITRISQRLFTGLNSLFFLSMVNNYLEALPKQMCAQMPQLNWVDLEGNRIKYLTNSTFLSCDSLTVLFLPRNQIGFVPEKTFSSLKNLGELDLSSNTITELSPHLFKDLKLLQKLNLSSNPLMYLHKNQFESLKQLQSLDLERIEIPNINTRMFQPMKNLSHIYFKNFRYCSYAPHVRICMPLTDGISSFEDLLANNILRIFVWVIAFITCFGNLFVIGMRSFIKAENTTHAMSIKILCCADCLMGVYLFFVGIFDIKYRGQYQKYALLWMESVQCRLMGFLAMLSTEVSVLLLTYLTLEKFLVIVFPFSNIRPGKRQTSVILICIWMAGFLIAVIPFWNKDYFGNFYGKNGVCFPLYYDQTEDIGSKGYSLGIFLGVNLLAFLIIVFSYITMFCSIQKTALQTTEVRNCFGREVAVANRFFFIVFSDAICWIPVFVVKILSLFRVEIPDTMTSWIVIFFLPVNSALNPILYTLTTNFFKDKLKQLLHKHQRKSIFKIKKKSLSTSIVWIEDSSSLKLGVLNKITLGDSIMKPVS
# Description: HEK293 cells stably transfected with RXFP2, the cognate receptor for another relaxin family peptide, insulin-like 3, (HEK293-RXFP2) was used to test compound specificity towards the RXFP1 receptor. For this assay, cells were seeded at 8,000 cells/well in 30 µL/well of media with a MultiDrop Combi dispenser (Thermo Scientific), and allowed to attach overnight at 37° C., 5% CO2. Next, 2 µL/well of 1.6 mM Ro 20-1724 solution in PBS+(DPBS, 1 mM CaCl2, 0.5 mM MgCl2, 0.05% BSA, 0.005% Tween 20) were dispensed using a BioRAPTR FRD dispenser (Beckman Coulter, Brea, Calif.), followed addition of 0.25 μL/well of compound solution in DMSO with CyBi-well dispenser (CyBio, Jena, Germany). The cells were allowed to be stimulated with the compounds for 30 minutes at 37° C., 5% CO2, after which, 8 μL/well of each HTRF detection reagent (diluted according to assay kit directions in HTRF lysis buffer) was dispensed with a BioRAPTR FRD dispenser. The plates were incubated for 30 minute at 37° C., and then the signal was read on a ViewLux plate reader (PerkinElmer, Waltham, Mass.).
# [2] = 0.5 h, THP-1 cells, cAMP HTRF, with Ro 20-1724 and forskolin, 30 min, read-out: EC50
# [3] = percentage of the maximal receptor activation induced by high concentrations of forskolin, Tables 1-7, read-out: Max Response
# [4] = read-out: RXFP1 AC50 (μM, Max. Resp.): Max. Resp.
# [5] = HEK293-RXFP1 cells, cAMP HTRF, with Ro 20-1724, Tables 1-7, read-out: RXFP1 AC50
smiles,measurement,setting,value
"CCOc1ccccc1C(=O)Nc1ccccc1C(=O)Nc1cccc(C(F)(F)F)c1 [Compound 99, 2-Ethoxy-N-(2-((3-(trifluoromethyl)phenyl)carbamoyl)phenyl)benzamide]",Relative VEGF gene expression (control = 1.0),[1],1.9
same,EC50,cAMP in THP-1 cells; [2],471 nM
COc1ccccc1C(=O)Nc1ccccc1C(=O)Nc1cccc(SC(F)(F)F)c1 [Compound 158],EC50,cAMP in THP-1 cells; [2],523 nM
"COc1ccccc1C(=O)Nc1ccccc1C(=O)Nc1cccc(S(=O)(=O)C(F)(F)F)c1 [Compound 159, 2-Methoxy-N-(2-((3-((trifluoromethyl)sulfonyl)phenyl)carbamoyl)phenyl)benzamide]",EC50,cAMP in THP-1 cells; [2],358 nM
O=C(Nc1ccc(F)cc1)c1ccccc1NC(=O)C1CCCCC1 [Example 13],Emax,RXFP1; [3],74%
C#Cc1cccc(NC(=O)c2ccccc2NC(=O)C2CCCCC2)c1 [Example 21],Emax,RXFP1; [3],85%
O=C(NCc1ccco1)c1ccccc1NC(=O)c1ccccc1NC(=O)C1CCCCC1 [Example 44],Emax,RXFP1; [3],45%
CC(=O)Nc1ccccc1C(=O)Nc1cccc(C(F)(F)F)c1 [Example 47],Emax,RXFP1; read-out: Max Response,51%
O=C(Nc1cccc(C(F)(F)F)c1)c1ccccc1NC(=O)c1ccccc1C(F)(F)F [Example 70],Emax,RXFP1; [3],70%
O=C(Nc1ccccc1C(=O)Nc1cccc(C(F)(F)F)c1)c1ccccc1I [Example 86],Emax,RXFP1; [3],80%
CCOc1ccccc1C(=O)Nc1ccccc1C(=O)Nc1cccc(C(F)(F)F)c1 [Example 99],solubility,PBS solubility,1.7 µM
same,Emax,"RXFP2; 0.5 h, read-out: RXFP2 AC50 (μM, Max. Resp.): Max. Resp.",47%
same,AC50,"RXFP2; HEK293-RXFP2 cells, inactive = Maximum response less than 30%, read-out: RXFP2 AC50 (μM, Max. Resp.): AC50",9.4 µM
same,AC50,"RXFP1; Table 10, read-out: RXFP1 AC50 (μM, Max. Resp.): AC50",0.297 µM
same,Emax,RXFP1; [3],94%
same,Emax,RXFP1; [4],95%
CCOc1ccccc1C(=O)Nc1ccccc1-c1nc2cc(C(F)(F)F)ccc2[nH]1 [Example 141],Emax,RXFP1; [3],31%
CCOc1ccccc1-c1nc2ccccc2c(=O)n1-c1cccc(-c2nnn[nH]2)c1 [Example 143],Emax,RXFP1; [3],36%
COc1ccccc1C(=O)Nc1ccccc1C(=O)Nc1cccc(S(=O)(=O)C(F)(F)F)c1 [Example 159],Emax,RXFP1; read-out: Max Response,99%
same,Emax,RXFP1; [4],99%
CCOc1ccccc1C(=O)Nc1ccccc1C(=O)Nc1cncc(I)c1 [Example 165],AC50,RXFP1; [5],11.8 µM
same,Emax,RXFP1; [3],72%
C/C=C\c1cccc(NC(=O)c2ccccc2NC(=O)c2ccccc2OCC)c1 [Example 169],AC50,RXFP1; [5],1.49 µM
same,Emax,RXFP1; [3],91%
CCSc1ccccc1C(=O)Nc1ccccc1C(=O)Nc1cccc(S(=O)(=O)C(F)(F)F)c1 [Example 176],Emax,RXFP1; [3],95%
"O=C(Nc1cccc(S(=O)(=O)C(F)(F)F)c1)c1ccccc1NC(=O)c1ccccc1OCC(F)(F)F [Example 177, 2-(2,2,2-Trifluoroethoxy)-N-(2-((3-((trifluoromethyl)sulfonyl)phenyl)carbamoyl)phenyl)benzamide]",EC50,"cAMP in THP-1 cells; THP-1, 0.5 h",107 nM
O=C(Nc1cccc(S(=O)(=O)C(F)(F)F)c1)c1ccccc1NC(=O)c1ccccc1OCC(F)(F)F [Example 177],Emax,RXFP1; read-out: Max Response,97%
same,Emax,RXFP1; [4],97%
"CC(C)Oc1ccccc1C(=O)Nc1ccccc1C(=O)Nc1cccc(S(=O)(=O)C(F)(F)F)c1 [Example 178, 2-Isopropoxy-N-(2-(3-(trifluoromethylsulfonyl)phenylcarbamoyl)phenyl)benzamide]",EC50,cAMP in THP-1 cells; [2],200 nM
"CCCOc1ccccc1C(=O)Nc1ccccc1C(=O)Nc1cccc(S(=O)(=O)C(F)(F)F)c1 [Example 179, 2-Propoxy-N-(2-((3-((trifluoromethyl)sulfonyl)phenyl)carbamoyl)phenyl)benzamide]",Relative VEGF gene expression (control = 1.0),[1],1.5
same,EC50,"cAMP in THP-1 cells; THP-1, 0.5 h",105 nM
"CCCCOc1ccccc1C(=O)Nc1ccccc1C(=O)Nc1cccc(S(=O)(=O)C(F)(F)F)c1 [Example 180, 2-Butoxy-N-(2-((3-((trifluoromethyl)sulfonyl)phenyl)carbamoyl)phenyl)benzamide]",EC50,"cAMP in THP-1 cells; THP-1, 0.5 h",124 nM
CCCCOc1ccccc1C(=O)Nc1ccccc1C(=O)Nc1cccc(S(=O)(=O)C(F)(F)F)c1 [Example 180],Emax,RXFP1; read-out: Max Response,98%
same,Emax,RXFP1; [4],98%
